From US20080031839A1, “Agent For Prermanent Hair Processing” (Showa Denko K.K., priority 2004, published 2008) come the findings set out here.

Structures can show the parent of a compound that is named as a salt.

The nature of this test: Permanent wave processing of hair, wave efficiency by Kilby method. Conditions: for Wave efficiency: compound at 2% in terms of reducing power of thioglycolic acid, soaked at 35° C. for 20 minutes, bromate second liquid 25° C. 10 minutes. How it is done:
A permanent wave first liquid was prepared as described below using the alkoxyalkyl mercaptocarboxylate (TGE-1) obtained in Synthetic Example 1. A permanent wave second liquid was prepared as described below. Hair was permanent waved with these liquids, and the wave efficiency was obtained.
[…] The mixing was performed such that the total amount would be 100 g. A permanent wave first liquid was thus prepared.
The agent contained TGE-1 in an amount of 2% in terms of reducing power of thioglycolic acid.
5 g of sodium bromate and 95 g of purified water were mixed together to give a permanent wave second liquid.
The wave efficiency was evaluated by a Kilby method as described in Fragrance Journal Extra Edition (1984, No. 5, P. 442). A liquid containing cysteamine hydrochloride was used as the comparative agent.
Chinese hair (approximately 20 cm long) was fixed to a Kilby apparatus and was soaked in the permanent wave first liquid heated to 35° C. over a period of 20 minutes. Thereafter, the hair was lightly towel dried such that the first liquid would not drip. The hair was then given the bromate-based permanent wave second liquid, and was allowed to stand at 25° C. for 10 minutes. After the completion of the treatment with the second liquid, the hair was rinsed with running water and was removed from the Kilby apparatus, followed by drying. The dried hair was measured and the wave efficiency was determined from the following equation. Wave efficiency(%)=100−[100×(B−A)]÷(C−A) wherein:
A: Distance between the first and sixth rods of the Kilby apparatus (actual measurement value between the central points of the rods)
B: Length of six waves of curled hair
C: Length of straightened six waves of curled hair
A permanent wave first liquid was prepared as described in Example 1, except that TGE-1 was replaced with the alkoxyalkyl mercaptocarboxylate indicated in Table 1. The permanent wave first liquid contained the alkoxyalkyl mercaptocarboxylate in an amount of 2% in terms of reducing power of thioglycolic acid.
Hair was permanent waved and the wave efficiency was obtained by the procedure of Example 1 with use of the permanent wave first liquid prepared as above and the permanent wave second liquid used in Example 1.
A permanent wave first liquid was prepared as described in Example 1, except that TGE-1 was replaced with the cysteamine hydrochloride indicated in Table 1. The permanent wave first liquid contained the […] in an amount of 2% in terms of reducing power of thioglycolic acid.

As for `CCOCC(C)OC(=O)CS` (stereo not shown) [TGE-8, 2-ethoxy-1-methylethyl thioglycolate], the Wave efficiency is, setting by setting: (pH 6 first liquid) 80%; (pH 7.5 first liquid) 82%; (pH 9 first liquid) 83%.

With 2-butoxyethyl thiolactate [TNE-3], the Wave efficiency is listed as 73% (pH 6 first liquid), 73% (pH 7.5 first liquid) and 72% (pH 9 first liquid).

`COCCOCCOCCOC(=O)CS` [TGE-9, 8-methoxy-3,6-dioxaoctyl thioglycolate]: the Wave efficiency is, setting by setting: (pH 6 first liquid) 75%; (pH 7.5 first liquid) 75%; (pH 9 first liquid) 76%.

`COCCOCCOCCOC(=O)CS` [TGE-6, 8-methoxy-3,6-dioxaoctyl thioglycolate]: the Wave efficiency by setting is: (pH 6 first liquid) 63%; (pH 7.5 first liquid) 67%; (pH 9 first liquid) 65%.

Turning to `NCCS` [Cysteamine hydrochloride, cysteamine hydrochloride, reference compound], under “neutral to acidic versus alkaline pH, summary of Table 1”, the “Behaviour of wave efficiency across pH range” value is on record as “drastic deterioration of wave efficiency with the pH lowering to a neutral to acidic region”. In addition, the Wave efficiency is listed as 52% (pH 6 first liquid), 65% (pH 7.5 first liquid) and 73% (pH 9 first liquid).

As to `CCOCCOC(=O)CS` [TGE-2, 2-ethoxyethyl thioglycolate], the Wave efficiency by setting is: (pH 6 first liquid) 84%; (pH 7.5 first liquid) 87%; (pH 9 first liquid) 86%.

`COCC(C)OC(=O)CS` (stereo not shown) [TGE-7, 2-methoxy-1-methylethyl thioglycolate] had a Wave efficiency (pH 6 first liquid) of 79%, a Wave efficiency (pH 7.5 first liquid) of 81% and a Wave efficiency (pH 9 first liquid) of 81%.

For the compound `CCCCOCCOC(=O)CS` [TGE-3, 2-butoxyethyl thioglycolate], the Wave efficiency is listed as 79% (pH 6 first liquid), 79% (pH 7.5 first liquid) and 82% (pH 9 first liquid).

As for `CCOCCOCCOC(=O)CS` [TGE-5, 5-ethoxy-3-oxapentyl thioglycolate], the Wave efficiency reads like this: (pH 6 first liquid) 70%; (pH 7.5 first liquid) 70%; (pH 9 first liquid) 71%.
